The target of assay [1] is cAMP dependent protein kinase A, catalytic subunit α (PKA) (Homo sapiens, UniProt P17612). Kind of assay: split-luciferase three-hybrid displacement of Jun-staurosporine, […] inhibitor. Format: cell-based. To be noted: read-out: % inhibition at 10 μM.
In the next assay the target is FGFR1/FLT2 (Homo sapiens, UniProt P11362). Described as above. The format is cell-based. The note with it: read-out: % inhibition at 10 μM.
FGFR1/FLT2, sequence (P11362 478-767 limits assumed): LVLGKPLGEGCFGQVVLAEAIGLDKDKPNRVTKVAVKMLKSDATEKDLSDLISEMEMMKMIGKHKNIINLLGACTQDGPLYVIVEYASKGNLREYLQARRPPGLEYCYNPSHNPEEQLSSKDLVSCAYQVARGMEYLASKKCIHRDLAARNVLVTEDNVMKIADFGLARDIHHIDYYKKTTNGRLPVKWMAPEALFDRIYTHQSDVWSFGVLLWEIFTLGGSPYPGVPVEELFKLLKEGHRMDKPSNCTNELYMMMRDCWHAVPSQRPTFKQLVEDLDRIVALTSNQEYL

As a reminder, the inhibition is the percentage by which the read-out fell short of the control. Take `O=S(=O)(NCCNC/C=C/c1ccc(Br)cc1)c1cccc2cnccc12` [compound 5, H89]: in assay [1], the inhibition at 10 µM turned out to be 67%. `CC(C)[C@H](CO)Nc1nc(Nc2ccc(C(=O)O)c(Cl)c2)c2ncn(C(C)C)c2n1` [compound 8, purvalanol B]: on FGFR1/FLT2, the inhibition at 10 µM worked out at 58%. Same read-out and setting: then `CC(C)[C@H](CO)Nc1nc(Nc2cc(N)cc(Cl)c2)c2ncn(C(C)C)c2n1` [compound 6, aminopurvalanol A], with 68%.
